Laboratory results: patent US8143290B2, “Chemical compounds 572” (AstraZeneca AB, priority 2006, dated 2012)

target: T1, recombinant human GR (Homo sapiens, UniProt P04150); experiment: Human Glucocorticoid Receptor (GR) Assay, fluorescence polarization; type: binding; conditions: GS Red tracer, incubated 2 h at r.t., XLfit model 205, read-out: GRhuFL_FP_v2 Mean IC50
T1 construct: purchased Panvera/Invitrogen P2812 (kit P2893)
T1 sequence (P04150 1-777): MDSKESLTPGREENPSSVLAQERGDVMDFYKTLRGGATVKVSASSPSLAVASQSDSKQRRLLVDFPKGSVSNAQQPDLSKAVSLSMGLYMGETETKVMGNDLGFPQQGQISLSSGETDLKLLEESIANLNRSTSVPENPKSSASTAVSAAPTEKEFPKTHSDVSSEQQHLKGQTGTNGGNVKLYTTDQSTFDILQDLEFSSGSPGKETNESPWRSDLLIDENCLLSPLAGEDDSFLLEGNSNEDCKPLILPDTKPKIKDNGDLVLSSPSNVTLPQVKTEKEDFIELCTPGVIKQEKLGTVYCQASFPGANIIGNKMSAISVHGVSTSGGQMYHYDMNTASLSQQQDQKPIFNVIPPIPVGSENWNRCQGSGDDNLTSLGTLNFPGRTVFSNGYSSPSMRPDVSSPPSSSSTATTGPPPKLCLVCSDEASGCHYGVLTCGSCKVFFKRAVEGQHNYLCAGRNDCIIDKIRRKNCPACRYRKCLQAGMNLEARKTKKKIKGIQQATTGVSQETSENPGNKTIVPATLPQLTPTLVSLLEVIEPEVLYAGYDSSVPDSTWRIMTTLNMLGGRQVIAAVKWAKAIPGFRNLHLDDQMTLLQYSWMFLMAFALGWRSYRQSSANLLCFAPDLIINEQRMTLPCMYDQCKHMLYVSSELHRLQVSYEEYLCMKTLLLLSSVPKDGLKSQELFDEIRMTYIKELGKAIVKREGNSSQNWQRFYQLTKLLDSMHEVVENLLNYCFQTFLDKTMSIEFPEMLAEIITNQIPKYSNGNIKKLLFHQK
Method in brief: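 Fluorescence polarization kit assay: recombinant GR and GS Red fluorescent ligand with Stabilizing Peptide and DTT in potassium phosphate/sodium molybdate/EDTA screening buffer. Plates incubated 2 h in the dark at r.t.; DMSO served as 0% and dexamethasone as 100% control.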

| SMILES | IC50 |
| --- | --- |
| C[C@H](NC(=O)C(C)(C)C)[C@H](Oc1ccc2c(cnn2-c2ccc(F)cc2)c1)c1ccc2c(c1)OCO2 [Example 189, N-[(1R,2S)-1-benzo[1,3]dioxol-5-yl-1-[1-(4-fluorophenyl)indazol-5-yl]oxy-propan-2-yl]-2,2-dimethyl-propanamide] | 7.8 nM |
| Cc1cc([C@@H](Oc2ccc3c(cnn3-c3ccc(F)cc3)c2)[C@H](C)NC(=O)C(C)(C)C)ccc1Cl [Example 191, N-[(1R,2S)-1-(4-chloro-3-methyl-phenyl)-1-[1-(4-fluorophenyl)indazol-5-yl]oxy-propan-2-yl]-2,2-dimethyl-propanamide] | 5.9 nM |
| Cc1cnc(C(=O)N[C@@H](C)[C@H](Oc2ccc3c(cnn3-c3ccc(F)cc3)c2)c2ccc(F)c(F)c2)s1 [Example 193, N-[(1R,2S)-1-(3,4-difluorophenyl)-1-[1-(4-fluorophenyl)indazol-5-yl]oxy-propan-2-yl]-5-methyl-1,3-thiazole-2-carboxamide] | 6.5 nM |
| Cc1cnc(C(=O)N[C@@H](C)[C@H](Oc2ccc3c(cnn3-c3ccc(F)cc3)c2)c2ccc(C)c(F)c2)s1 [Example 194, N-[(1R,2S)-1-(3-fluoro-4-methyl-phenyl)-1-[1-(4-fluorophenyl)indazol-5-yl]oxy-propan-2-yl]-5-methyl-1,3-thiazole-2-carboxamide] | 3.9 nM |
| Cc1cnc(C(=O)N[C@@H](C)[C@H](Oc2ccc3c(cnn3-c3ccc(F)cc3)c2)c2cccc(F)c2)s1 [Example 195, N-[(1R,2S)-1-(3-fluorophenyl)-1-[1-(4-fluorophenyl)indazol-5-yl]oxy-propan-2-yl]-5-methyl-1,3-thiazole-2-carboxamide] | 3.3 nM |
| Cc1ccc([C@@H](Oc2ccc3c(cnn3-c3ccc(F)cc3)c2)[C@H](C)NC(=O)c2ncc(C)s2)c(C)c1 [Example 197, N-[(1R,2S)-1-(2,4-dimethylphenyl)-1-[1-(4-fluorophenyl)indazol-5-yl]oxy-propan-2-yl]-5-methyl-1,3-thiazole-2-carboxamide] | 4.9 nM |
| COc1ccc([C@@H](Oc2ccc3c(cnn3-c3ccc(F)cc3)c2)[C@H](C)NC(=O)c2ncc(C)s2)cc1F [Example 198, N-[(1R,2S)-1-(3-fluoro-4-methoxy-phenyl)-1-[1-(4-fluorophenyl)indazol-5-yl]oxy-propan-2-yl]-5-methyl-1,3-thiazole-2-carboxamide] | 3.8 nM |
| Cc1cnc(C(=O)N[C@@H](C)[C@H](Oc2ccc3c(cnn3-c3ccc(F)cc3)c2)c2ccc(Cl)cc2)s1 [Example 204, N-[(1R,2S)-1-(4-chlorophenyl)-1-[1-(4-fluorophenyl)indazol-5-yl]oxy-propan-2-yl]-5-methyl-1,3-thiazole-2-carboxamide] | 6.7 nM |
| COc1ccccc1[C@@H](Oc1ccc2c(cnn2-c2ccc(F)cc2)c1)[C@H](C)NC(=O)c1ncc(C)s1 [Example 209, N-[(1R,2S)-1-[1-(4-fluorophenyl)indazol-5-yl]oxy-1-(2-methoxyphenyl)propan-2-yl]-5-methyl-1,3-thiazole-2-carboxamide] | 4.1 nM |
| Cc1cnc(C(=O)N[C@@H](C)[C@H](Oc2ccc3c(cnn3-c3ccc(F)cc3)c2)c2ccc3c(c2)OCO3)s1 [Example 210, N-[(1R,2S)-1-benzo[1,3]dioxol-5-yl-1-[1-(4-fluorophenyl)indazol-5-yl]oxy-propan-2-yl]-5-methyl-1,3-thiazole-2-carboxamide] | 5.2 nM |
| C[C@H](NC(=O)C1(C)CC1)[C@H](Oc1ccc2c(cnn2-c2ccc(F)cc2)c1)c1cccc(F)c1 [Example 214, N-[(1R,2S)-1-(3-fluorophenyl)-1-[1-(4-fluorophenyl)indazol-5-yl]oxy-propan-2-yl]-1-methyl-cyclopropane-1-carboxamide] | 4.5 nM |

More lines, in order of falling IC50, values ahead:

| IC50 | SMILES |
| --- | --- |
| 8.8 nM | Cc1cccc([C@@H](Oc2ccc3c(cnn3-c3ccc(F)cc3)c2)[C@H](C)NC(=O)c2ncc(C)s2)c1 [Example 207, N-[(1R,2S)-1-[1-(4-fluorophenyl)indazol-5-yl]oxy-1-(3-methylphenyl)propan-2-yl]-5-methyl-1,3-thiazole-2-carboxamide] |
| 8.2 nM | Cc1cnc(C(=O)N[C@@H](C)[C@H](Oc2ccc3c(cnn3-c3ccc(F)cc3)c2)c2ccc(C(C)(C)C)cc2)s1 [Example 208, N-[(1R,2S)-1-[1-(4-fluorophenyl)indazol-5-yl]oxy-1-(4-tert-butylphenyl)propan-2-yl]-5-methyl-1,3-thiazole-2-carboxamide] |
| 7.5 nM | Cc1cnc(C(=O)N[C@@H](C)[C@H](Oc2ccc3c(cnn3-c3ccc(F)cc3)c2)c2cc(C)c(C)cc2C)s1 [Example 206, N-[(1R,2S)-1-[1-(4-fluorophenyl)indazol-5-yl]oxy-1-(2,4,5-trimethylphenyl)propan-2-yl]-5-methyl-1,3-thiazole-2-carboxamide] |
| 7.4 nM | Cc1cnc(C(=O)N[C@@H](C)[C@H](Oc2ccc3c(cnn3-c3ccc(F)cc3)c2)c2cccc(Cl)c2)s1 [Example 199, N-[(1R,2S)-1-(3-chlorophenyl)-1-[1-(4-fluorophenyl)indazol-5-yl]oxy-propan-2-yl]-5-methyl-1,3-thiazole-2-carboxamide] |
| 6.6 nM | Cc1cnc(C(=O)N[C@@H](C)[C@H](Oc2ccc3c(cnn3-c3ccc(F)cc3)c2)c2cc(F)cc(Cl)c2)s1 [Example 205, N-[(1R,2S)-1-(3-chloro-5-fluoro-phenyl)-1-[1-(4-fluorophenyl)indazol-5-yl]oxy-propan-2-yl]-5-methyl-1,3-thiazole-2-carboxamide] |
| 6.2 nM | Cc1ccc(C)c([C@@H](Oc2ccc3c(cnn3-c3ccc(F)cc3)c2)[C@H](C)NC(=O)c2ncc(C)s2)c1 [Example 196, N-[(1R,2S)-1-(2,5-dimethylphenyl)-1-[1-(4-fluorophenyl)indazol-5-yl]oxy-propan-2-yl]-5-methyl-1,3-thiazole-2-carboxamide] |
| 5.9 nM | Cc1cnc(C(=O)N[C@@H](C)[C@H](Oc2ccc3c(cnn3-c3ccc(F)cc3)c2)c2cc(F)ccc2C)s1 [Example 201, N-[(1R,2S)-1-(5-fluoro-2-methyl-phenyl)-1-[1-(4-fluorophenyl)indazol-5-yl]oxy-propan-2-yl]-5-methyl-1,3-thiazole-2-carboxamide] |
| 5.4 nM | COc1c(C)cc([C@@H](Oc2ccc3c(cnn3-c3ccc(F)cc3)c2)[C@H](C)NC(=O)c2ncc(C)s2)cc1C [Example 203, N-[(1R,2S)-1-[1-(4-fluorophenyl)indazol-5-yl]oxy-1-(4-methoxy-3,5-dimethyl-phenyl)propan-2-yl]-5-methyl-1,3-thiazole-2-carboxamide] |
| 5.3 nM | COc1ccc(F)cc1[C@@H](Oc1ccc2c(cnn2-c2ccc(F)cc2)c1)[C@H](C)NC(=O)c1ncc(C)s1 [Example 202, N-[(1R,2S)-1-(5-fluoro-2-methoxy-phenyl)-1-[1-(4-fluorophenyl)indazol-5-yl]oxy-propan-2-yl]-5-methyl-1,3-thiazole-2-carboxamide] |
| 5.2 nM | C[C@H](NC(=O)C1(C)CC1)[C@H](Oc1ccc2c(cnn2-c2ccc(F)cc2)c1)c1ccc(F)c(F)c1 [Example 212, N-[(1R,2S)-1-(3,4-difluorophenyl)-1-[1-(4-fluorophenyl)indazol-5-yl]oxy-propan-2-yl]-1-methyl-cyclopropane-1-carboxamide] |
| 4.6 nM | Cc1cnc(C(=O)N[C@@H](C)[C@H](Oc2ccc3c(cnn3-c3ccc(F)cc3)c2)c2ccc(F)cc2C)s1 [Example 200, N-[(1R,2S)-1-(4-fluoro-2-methyl-phenyl)-1-[1-(4-fluorophenyl)indazol-5-yl]oxy-propan-2-yl]-5-methyl-1,3-thiazole-2-carboxamide] |
| 4.5 nM | Cc1c(F)cccc1[C@@H](Oc1ccc2c(cnn2-c2ccc(F)cc2)c1)[C@H](C)NC(=O)C(C)(C)C [Example 190, N-[(1R,2S)-1-(3-fluoro-2-methyl-phenyl)-1-[1-(4-fluorophenyl)indazol-5-yl]oxy-propan-2-yl]-2,2-dimethyl-propanamide] |
| 4.4 nM | Cc1ccc([C@@H](Oc2ccc3c(cnn3-c3ccc(F)cc3)c2)[C@H](C)NC(=O)C2(C)CC2)cc1F [Example 213, N-[(1R,2S)-1-(3-fluoro-4-methyl-phenyl)-1-[1-(4-fluorophenyl)indazol-5-yl]oxy-propan-2-yl]-1-methyl-cyclopropane-1-carboxamide] |
| 4.3 nM | Cc1cnc(C(=O)N[C@@H](C)[C@H](Oc2ccc3c(cnn3-c3ccc(F)cc3)c2)c2ccc(C)c(C)c2)s1 [Example 192, N-[(1R,2S)-1-(3,4-dimethylphenyl)-1-[1-(4-fluorophenyl)indazol-5-yl]oxy-propan-2-yl]-5-methyl-1,3-thiazole-2-carboxamide] |
| 3 nM | Cc1ccc([C@@H](Oc2ccc3c(cnn3-c3ccc(F)cc3)c2)[C@H](C)NC(=O)C2(C)CC2)cc1C [Example 211, N-[(1R,2S)-1-(3,4-dimethylphenyl)-1-[1-(4-fluorophenyl)indazol-5-yl]oxy-propan-2-yl]-1-methyl-cyclopropane-1-carboxamide] |
